By CC50 is commonly meant the concentration at which the toxic effect on the cells reaches its halfway point. The term EC50 denotes the concentration giving half of the maximal effect.

Data set [1] can be described thus: Selectivity index, ratio of CC50 for human MT4 cells to EC50 for HIV1 RES056 harboring reverse transcriptase K103N/Y181C mutant. The format is toxicity, cell-based. The note with it: read-out: Ratio CC50/EC50.
Data set [2] is described as follows: Cytotoxicity against human MT4 cells by MTT assay. The format is cell-based. On the technique in general: Tetrazolium assays rely on reduction of a dye to a coloured formazan, in cell work by metabolically active cells.
The nature of data set [3]: Selectivity index, ratio of CC50 for human MT4 cells to EC50 for HIV2 ROD. The format is toxicity, cell-based. The note with it: read-out: Ratio CC50/EC50.
Data set [4] concerns Human immunodeficiency virus 1. The data set is described as follows: Antiviral activity against HIV1 RES056 harboring reverse transcriptase K103N/Y181C mutant infected in human MT4 cells assessed as inhibition of virus-induced cytopathicity by MTT assay. The format is functional, organism-based. The note with it: Human immunodeficiency virus 1, RES056, MT4.
The test system of data set [5] is Human immunodeficiency virus 1. Description: Antiviral activity against HIV1 3B infected in human MT4 cells assessed as inhibition of virus-induced cytopathicity by MTT assay. The class given is functional, organism-based. The note with it: Human immunodeficiency virus 1, 3B.
For data set [6], the system named is Human immunodeficiency virus 2. The data set is described as follows: Antiviral activity against HIV2 ROD infected in human MT4 cells assessed as inhibition of virus-induced cytopathicity by MTT assay. The format is functional, organism-based. The note with it: Human immunodeficiency virus 2, ISOLATE ROD. For orientation: Protection from cytopathic effect is a common read-out in antiviral testing.

The nature of data set [7]: Selectivity index, ratio of CC50 for human MT4 cells to EC50 for HIV1 3B. The note with it: read-out: Ratio CC50/EC50. The format is toxicity, cell-based.

In the case of `O=C(CSc1nncnc1-c1ccccc1Cl)Nc1cccnc1Cl`, the selectivity ratio was 7 in data set [1], under 1 in data set [3] and 2240 in data set [7]. In addition, in data set [2], half-maximal cytotoxicity (CC50) was put at 167 µM. In addition, the EC50 in data set [4] is 23 µM; in data set [5] it was 0.074 µM; in data set [6], over 167 µM.
Regarding `Cc1ccc(NC(=O)CSc2nncnc2-c2ccccc2Cl)c(Br)c1`, the selectivity ratio was at most 1 in data set [1], under 1 in data set [3] and 253 in data set [7]. In data set [2], the midpoint of cytotoxicity, the CC50, lay at 45 µM. The concentration for a half-maximal effect (EC50) in data set [4] is at least 42 µM; in data set [5], 0.178 µM; in data set [6], over 45 µM.
As to `O=C(CSc1nncnc1-c1ccccc1Cl)Nc1ccc(Cl)cc1Cl`, the selectivity ratio was under 1 in data set [1], under 1 in data set [3] and 190 in data set [7]. Further, it took 51 µM to reach half-maximal cytotoxicity in data set [2] (CC50). In addition, the EC50 in data set [4] was over 51 µM; in data set [5] it was 0.258 µM; in data set [6], over 51 µM.
On to `Cc1cnc(NC(=O)CSc2nncnc2-c2ccccc2Cl)c(Br)c1`, for which, in data set [2], the midpoint of cytotoxicity, the CC50, lay at 144 µM. In addition, the selectivity ratio in data set [3] and in data set [7] was under 1 each time. Also, the EC50 was over 31 µM in data set [5] and over 144 µM in data set [6].
Compound `O=C1Nc2ccc(Cl)cc2[C@@](C#CC2CC2)(C(F)(F)F)O1` [EFAVIRENZ] came in with a 50% cytotoxic concentration (CC50) in data set [2] of over 6.3 µM.
Turning to `O=C(CSc1nncnc1-c1ccccc1Cl)c1ccc(Br)cc1Br`, in data set [2], the CC50 came to 28 µM. Also, the selectivity ratio in data set [3] and in data set [7] was under 1 throughout. Further, the EC50 in data set [5] and in data set [6] was over 28 µM throughout.
Turning to `CC(C)Nc1cccnc1N1CCN(C(=O)c2cc3cc(NS(C)(=O)=O)ccc3[nH]2)CC1` [DELAVIRDINE], in data set [1], the selectivity ratio is under 1. In data set [2], the CC50 is over 36 µM. For the same compound, the results for the EC50 in data set [4] and in data set [5] were over 36 µM and 0.032 µM, respectively.
For `O=C(CSc1nncnc1-c1cccc2ccccc12)Nc1ccccc1[N+](=O)[O-]`, the selectivity ratio is 25 in data set [1], under 1 in data set [3] and 3260 in data set [7]. Also, the CC50 in data set [2] worked out at 142 µM. The figures for the concentration giving a half-maximal response (EC50) in data set [4], in data set [5] and in data set [6] were 5.6 µM, 0.043 µM and over 142 µM, respectively.
Turning to `O=C(CSc1nncnc1-c1cccc2ccccc12)Nc1ccc(Cl)cc1Cl`, the CC50 in data set [2] was 254 µM. For the same compound, the selectivity ratio in data set [3] and in data set [7] was under 1 each time. In addition, the EC50 in data set [5] and in data set [6] was over 254 µM throughout.
For the compound `O=C(CSc1nncnc1-c1ccccc1Cl)Nc1ccccc1F`, the selectivity ratio in data set [1] is under 1; in data set [3] it was under 1; in data set [7] it was 471. This compound gave a CC50 in data set [2] of 98 µM. The EC50 was over 98 µM in data set [4], 0.21 µM in data set [5] and over 98 µM in data set [6].
In data set [2], `Cc1ccc2sc(NC(=O)CSc3nncnc3-c3ccccc3Cl)nc2c1` yielded a CC50 of 137 µM. Moreover, the selectivity ratio in data set [3] and in data set [7] was under 1 throughout. Moreover, the half-maximal effective concentration (EC50) in data set [5] and in data set [6] was over 32 µM throughout.
For `O=C(CSc1nncnc1-c1cccc2ccccc12)Nc1ccccc1F`, the figures for the selectivity ratio in data set [1], in data set [3] and in data set [7] were under 1, under 1 and 184, respectively. Moreover, the CC50 in data set [2] was determined as 65 µM. The values for the EC50 in data set [4], in data set [5] and in data set [6] were over 65 µM, 0.359 µM and over 65 µM, respectively.
With `COC(=O)c1sccc1NC(=O)CSc1nncnc1-c1ccccc1Cl`, the selectivity ratio is under 1 in data set [1], under 1 in data set [3] and 35 in data set [7]. The CC50 in data set [2] was 105 µM. In addition, the EC50 is over 105 µM in data set [4], 2.9 µM in data set [5] and over 105 µM in data set [6].
Take `CCOC(=O)c1ccc(NC(=O)CSc2nncnc2-c2cccc3ccccc23)c(Br)c1`: the values for the selectivity ratio in data set [1], in data set [3] and in data set [7] were under 1, under 1 and 524, respectively. The compound further yielded a CC50 in data set [2] of 105 µM. Also, the EC50 was over 105 µM in data set [4], 0.21 µM in data set [5] and over 105 µM in data set [6].
`COC(=O)c1ccc(NC(=O)CSc2nncnc2-c2cccc3ccccc23)c(Br)c1`: the selectivity ratio in data set [1] was 7; in data set [3], under 1; in data set [7], 2560. This compound also showed a CC50 in data set [2] of 173 µM. Moreover, the EC50 in data set [4] is 25 µM; in data set [5] it was 0.069 µM; in data set [6], over 173 µM.
In the case of `O=C(CSc1nncnc1-c1ccccc1Cl)Nc1ccccc1Br`, the selectivity ratio in data set [1] was at most 1; in data set [3] it was under 1; in data set [7] it was 792. Further, the CC50 in data set [2] is 73 µM. For the same compound, the values for the EC50 in data set [4], in data set [5] and in data set [6] were at least 55 µM, 0.092 µM and over 73 µM, respectively.
On to `Nc1ccn([C@H]2CC[C@@H](CO)O2)c(=O)n1` [ZALCITABINE], for which the CC50 in data set [2] was over 95 µM. Further, the selectivity ratio in data set [3] is over 74; in data set [7], 68. For the same compound, the results for the EC50 in data set [5] and in data set [6] were 1 µM and 1.3 µM, respectively.
With `O=C(CSc1nncnc1-c1ccccc1Cl)c1ccc(Cl)c(Cl)c1`, the CC50 in data set [2] was 33 µM. Further, the selectivity ratio in data set [3] was under 1; in data set [7], 5. The EC50 in data set [4] was over 33 µM; in data set [5], 6.2 µM; in data set [6] it was over 33 µM.
On to `O=C(CSc1nncnc1-c1ccccc1Cl)Nc1ccccn1`, for which the selectivity ratio was under 1 in data set [1], under 1 in data set [3] and 51 in data set [7]. The compound also had a CC50 in data set [2] of 172 µM. Moreover, the figures for the EC50 in data set [4], in data set [5] and in data set [6] were over 123 µM, 3.3 µM and over 123 µM, respectively.
In the case of `COC(=O)c1ccc(NC(=O)CSc2nncnc2-c2ccccc2Cl)c(Br)c1`, the selectivity ratio was under 1 in data set [1], under 1 in data set [3] and 311 in data set [7]. For the same compound, in data set [2], the CC50 was 59 µM. Also, the EC50 in data set [4] is over 59 µM; in data set [5] it was 0.19 µM; in data set [6] it was over 59 µM.
With `O=C(CSc1nncnc1-c1cccc2ccccc12)Nc1ccccc1Cl`, the selectivity ratio in data set [1] was under 1; in data set [3], under 1; in data set [7], 470. The CC50 in data set [2] amounted to 63 µM. In addition, the values for the half-maximal effective concentration (EC50) in data set [4], in data set [5] and in data set [6] were over 63 µM, 0.135 µM and over 63 µM, respectively.
Take `CC(=O)c1ccc(NC(=O)CSc2nncnc2-c2ccccc2Cl)c(Br)c1`: the values for the selectivity ratio in data set [1], in data set [3] and in data set [7] were under 1, under 1 and 404, respectively. The midpoint of cytotoxicity in data set [2], the CC50, lay at 34 µM. Moreover, the values for the EC50 in data set [4], in data set [5] and in data set [6] were over 34 µM, 0.086 µM and over 35 µM, respectively.
As to `CCOC(=O)c1ccc(NC(=O)CSc2nncnc2-c2ccccc2Cl)c(Br)c1`, the selectivity ratio is under 1 in data set [1], under 1 in data set [3] and 302 in data set [7]. In addition, the CC50 in data set [2] was determined as 69 µM. In addition, the EC50 in data set [4] was over 69 µM; in data set [5] it was 0.236 µM; in data set [6], over 69 µM.
Regarding `Cc1ccccc1NC(=O)CSc1nncnc1-c1cccc2ccccc12`, the selectivity ratio is under 1 in data set [1], under 1 in data set [3] and 194 in data set [7]. The compound also had a CC50 in data set [2] of 158 µM. Besides, the 50% effective concentration (EC50) was over 158 µM in data set [4], 0.828 µM in data set [5] and over 158 µM in data set [6].
In turn, `Cc1ccnc2c1NC(=O)c1cccnc1N2C1CC1` [NEVIRAPINE] showed a CC50 in data set [2] of over 15 µM. The EC50 in data set [4] is 11 µM.
In the case of `O=C(CSc1nncnc1-c1cccc2ccccc12)Nc1cccnc1Cl`, the values for the selectivity ratio in data set [1], in data set [3] and in data set [7] were 6, under 1 and 751, respectively. In addition, in data set [2], the CC50 is 44 µM. Further, the EC50 is 7 µM in data set [4], 0.059 µM in data set [5] and over 44 µM in data set [6].
As to `O=C(CSc1nncnc1-c1ccccc1Cl)N1CCc2ccccc2C1`, the selectivity ratio is under 1 in data set [1], over 1 in data set [3] and at least 52 in data set [7]. The compound also yielded a CC50 in data set [2] of at least 38 µM. Further, the EC50 in data set [4] is at least 43 µM; in data set [5], 0.731 µM; in data set [6] it was over 38 µM.
With `Cc1cn([C@H]2C[C@H](N=[N+]=[N-])[C@@H](CO)O2)c(=O)[nH]c1=O` [ZIDOVUDINE], the selectivity ratio in data set [1] worked out at 29600; in data set [3] it was 56900; in data set [7], 8300. The EC50 was found to be 0.009 µM in data set [4] and 0.004 µM in data set [6].
Regarding `O=C(CSc1nncnc1-c1ccccc1Cl)N1CCCc2ccccc21`, in data set [2], the midpoint of cytotoxicity, the CC50, lay at 35 µM. Also, the selectivity ratio in data set [3] and in data set [7] was under 1 in each case. The EC50 in data set [5] and in data set [6] was over 35 µM throughout.
Turning to `O=C(CSc1nncnc1-c1ccccc1Cl)Nc1ccccc1Cl`, the selectivity ratio in data set [1] is at most 2; in data set [3], under 1. The EC50 in data set [4] is at least 55 µM; in data set [6] it was over 90 µM.
Compound `O=C(CSc1nncnc1-c1cccc2ccccc12)Nc1ccc([N+](=O)[O-])cc1Cl` had a CC50 in data set [2] of 150 µM. Besides, the selectivity ratio in data set [3] and in data set [7] was under 1 in each case. Also, the EC50 in data set [5] and in data set [6] was over 150 µM in each case.

The values above are taken from ChEMBL document CHEMBL2203176, “Structure-based bioisosterism design, synthesis and biological evaluation of novel 1,2,4-triazin-6-ylthioacetamides as potent HIV-1 NNRTIs” (Bioorg Med Chem Lett, 2012).
